Key:
[1] = target: D(2) dopamine receptor (Sus scrofa); experiment: The compound was evaluated for the binding affinity towards Dopamine receptor D2 at low affinity state.
[2] = target: D(2) dopamine receptor (Sus scrofa); experiment: The compound was evaluated for the binding affinity towards Dopamine receptor D2 at high affinity state.
[3] = target: D(1A) dopamine receptor (Canis familiaris); experiment: The compound was evaluated for the dissociation constant for inhibiting the binding of [3H]-SCH- 23390 at Dopamine receptor D1
[4] = target: D(2) dopamine receptor (Sus scrofa); experiment: The compound was evaluated for the binding affinity towards dopamine receptor D2 at high affinity state.
[5] = target: D(1A) dopamine receptor (Canis familiaris); experiment: The compound was evaluated for the dissociation constant for inhibiting the binding of [3H]-SCH- 23390 at dopamine receptor D1

SMILES | Ki [1] | Ki [2] | Ki [3] | Ki [4] | Ki [5]
Oc1cc2c(c(Br)c1O)CCNCC2c1ccccc1 (configuration not stated) | 2000 nM | 39 nM | 12 nM | – | –
CN1CCc2c(cc(O)c(O)c2Br)C(c2ccccc2)C1 (configuration not stated) | – | – | – | 490 nM | 1.2 nM
CN1CCc2c(cc(O)c(O)c2Cl)C(c2ccccc2)C1 (configuration not stated) | – | – | – | 77 nM | 0.9 nM

— BindingDB's records for doi:10.1021/jm00116a004 (Northeastern University, 1992)
